Laboratory results from article PMC11681159, “Bee pollen peptides as potent tyrosinase inhibitors with anti-melanogenesis effects in murine b16f10 melanoma cells and zebrafish embryos” (Scientific Reports, 2024).
“Also recorded” adds a separate entry of the source. Ends that are not written are not given here.

Columns and labels:
[1] = system: Tyr; assay: qRT-PCR, Tyr mRNA; assay type: cell-based, mouse; settings: B16F10, 48 h
Experimental: A 6-well plate was used to seed B16F10 cells at 1 × 10^5 cells per well prior to overnight incubation in a 5% CO2 humid atmosphere at 37°C. […] Harvesting was conducted via removal of the supernatant, and the cells were rinsed twice in PBS (phosphate-buffered saline). The PureLink™RNA Mini Kit (Invitrogen™, USA) was then used to extract total RNA in line with the guidance of the manufacturer. RNA concentration was assessed at 260 nm with a NanoDrop 2000 UV-Vis spectrophotometer (Thermo Fisher Scientific, Inc.). Oligo-dT primers and a Precision nanoScript II Reverse Transcription Kit (PrimerDesign, Camberley, UK) were used to perform the reverse transcription of 1 µg of total RNA to cDNA in line with the guidance of the manufacturer. MyGo Pro®Real time PCR apparatus (IT-IS International Ltd., Stokesley, UK) was then used to perform the qRT-PCR assays in which 20 µL of PCR reaction contained 1 µL of cDNA, 7 µL of ultrapure water, 1 µL of each primer […], and 10 µL of 2×qPCRBIO SyGreen Mix (PCR Biosystems Ltd, London, UK). […] The relative gene expression level could then be calculated via the cycle threshold (Ct) value, while the role of endogenous control for data normalization was occupied by Gapdh (the housekeeping gene). […]

[2] = system: zebrafish embryos; assay: Acute toxicity in zebrafish embryos; assay type: in vivo
Experimental: To perform the test of acute toxicity, a total of 20 fertilized zebrafish embryos were collected at around 4 h after fertilization and added to each well in a 12-well plate. […] Incubation of the plate then took place until 48 h after fertilization at a temperature of 28.5 ± 1 °C. The test solutions were refreshed at 24 h after fertilization to allow the counting and removal of any dead embryos. Following exposure, a stereomicroscope (SZX16, Olympus, Japan) was used to record the embryo morphological effects. Meanwhile, a slightly modified version of a previously described melanin inhibitory assay was carried out[30]. The embryos were then homogenized using a cold lysis buffer (PBS pH 7.4, 1% Triton-X and 1% DMSF). The lysate then underwent 10 min of sonication before being placed in a centrifuge for 5 min at 10,000×g. The pellet was then removed from the centrifuge and dissolved in 200 µL of 1 N NaOH for 1 h at a temperature of 85 °C. This sample was subsequently vortexed and placed in the centrifuge for a further 5 min at 10,000×g. A microplate reader (Spectramax M5, Molecular Devices, USA) was then employed to determine the supernatant absorbance at 490 nm. Melanin content levels could then by calibrated by using the protein amount, and were reported in the form of a percentage compared to the untreated control. In the melanin inhibitory assay, the positive control used was phenylthiourea (PTU) solution (0.0015%).

[3] = biological target: T1, mushroom TYR (Agaricus bisporus, UniProt C7FF04); assay: Kinetic study, Lineweaver-Burk, mono-phenolase; assay type: biochemical; settings: Km rose, Vmax unchanged
T1 construct: purchased Sigma-Aldrich, Merck T3824
T1 sequence (C7FF04 2-392): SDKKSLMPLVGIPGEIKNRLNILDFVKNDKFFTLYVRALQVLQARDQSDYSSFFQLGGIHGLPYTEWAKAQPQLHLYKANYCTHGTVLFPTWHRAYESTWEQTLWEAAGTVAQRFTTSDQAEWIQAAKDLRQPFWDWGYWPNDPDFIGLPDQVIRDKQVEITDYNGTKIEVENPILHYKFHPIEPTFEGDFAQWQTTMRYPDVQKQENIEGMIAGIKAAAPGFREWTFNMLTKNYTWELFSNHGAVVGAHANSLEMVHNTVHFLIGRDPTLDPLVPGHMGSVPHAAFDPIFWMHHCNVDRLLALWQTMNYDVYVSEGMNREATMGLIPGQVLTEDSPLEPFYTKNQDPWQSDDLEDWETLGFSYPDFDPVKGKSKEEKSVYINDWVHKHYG
Experimental: It is necessary to determine the type of TYR inhibitory activity which takes place. This can be achieved through a modified version of an assay described by Feng et al.[39]. The process starts by dissolving the peptide VY-9 in deionized water at various concentrations (0, 0.25, 0.5, and 1 mM). Each VY-9 peptide sample at each concentration (35 µL) was combined 15 µL of mushroom TYR (333 U/mL in 50 mM PBS pH 6.8) prior to 5 min of incubation at 25 °C. Subsequently, various concentrations of substrate were introduced, namely 0–2 mM L-tyrosine in the case of mono-phenolase, and 0–12 mM L-DOPA for di-phenolase. These new mixtures underwent further incubation for 30 min at the same temperature of 25 °C. Upon completion, a spectrophotometer was used to measure the absorbance and determine the inhibitory activity at 490 nm. Lineweaver-Burk plots were then used in calculating Km and Vmax, the kinetic parameters. Km is indicated by the intersection point on the X-axis while Vmax is indicated by the intersection point on the Y-axis in the mode of TYR inhibition under examination. Construction of the plots linked the substrate concentration reciprocal on the X-axis and the absorbance reciprocal (at 490 nm) on the Y-axis, to represent the starting rate for the enzymatic reaction. […]

[4] = system: Trp-1; assay: Western blot, TRP-1 protein; assay type: cell-based, mouse; settings: B16F10, 48 h
Experimental: Western blot analysis was performed to measure TYR (TYR, TRP-1, TRP-2, and MITF) in B16F10 cells in line with the approach discussed by Yoon et al.[65]. whereby the B16F10 cells underwent treatment for 48 h using various peptide amounts ([…]) and also with arbutin (0.2 mM). Following this process, the cells were lysed using NP40 Cell Lysis Buffer with protease inhibitor cocktail supplementation. Next, 12% sodium dodecyl sulfate poly-acrylamide (SDS-PAGE) gel electrophoresis was used to extract equal quantities of protein from each sample, with subsequent transfer to PVD (polyvinylidene fluoride) membranes (Millipore, Bedford, MA, USA). The membrane was blocked overnight with 3% skimmed milk (w/v) in TBST with 0.5% Tween 20 at 4 °C and then washed thrice in TBST. The rabbit polyclonal anti-TYR antibody (dilution 1:1000), anti-TRP-1 antibody (dilution 1:1000), anti-TRP-2 antibody and anti-MITF antibody (dilution 1:1000) obtained from Abcam (USA), were used respectively to detect the TYR, TRP-1, TRP-2, and MITF bands. After thrice washing again in TBST, secondary antibodies (dilution 1:5000) were added to the membranes for 1 h of incubation at room temperature before another triplicate washing in TBST. […] The software facilitated the identification and quantification of protein expression levels.

What does the source list for “VDGYPAAGY [VY-9, Val-Asp-Gly-Tyr-Pro-Ala- Ala-Gly-Tyr]”?
Tyr mRNA expression vs control ([1]; 1.6 µM): significantly reduced the expression levels of all measured genes; concentration from which Tyr mRNA expression decreased ([1]; vs control): 0.4 µM; embryo development ([2]; 20 µM): the development of the embryo was significantly retarded; embryo survival / malformation ([2]; 2–10 µM, vs control): no significant influence; also recorded: no significant difference in the rates for survival or malformation; no observed effect concentration (NOEC) ([2]; zebrafish embryos, to 48 h after fertilization, 28.5 °C): 10 µM; inhibition type, mono-phenolase [3]: competitive inhibitor; TRP-1 protein expression vs control ([4]; 1.6 µM): the expression of all proteins decreased compared to the control; concentration from which TRP-1 protein expression gradually decreased ([4]; western blot): 0.2 µM
